Measurements published in patent US9248200B2, “Method of delivering an anti-cancer agent to a cell” (Agency for Science, Technology and Research, priority 2007, dated 2016).

What was measured:
[1] = system: human normal mammary epithelial cells (HMEC); test: Cytotoxicity test (Alamar Blue cell viability); type: cell-based; conditions: treated 2 days, different concentrations, FIG. 1
Description: Cells were plated (1×10^4 cells in mammary epithelial growth medium/well) in quintuplicate and octuplicate for samples and control, respectively, in 96-well microplates, and allowed to adhere overnight.

proteinase K = proteinase K (Parengyodontium album, UniProt P06873); test: Proteolysis assessment (FITC-BSA fluorescence with proteinase K); conditions: proteinase K 0.05 mg/ml, over time; FIG. 3
Description: Proteolysis Assessment: Protein degradation was determined by monitoring the fluorescence intensity increment in FITC-BSA when samples were subjected to proteinase K (0.05 mg/mI), using a fluorescence spectrophotometer (Hitachi, Japan, λex=490 nm and λem=530 nm). All measurements were run in triplicate.

[2] = system: SKBR-3 (HER2-overexpressing human breast cancer cell line); test: Cancer cell proliferation assessment (Alamar Blue); type: cell-based; conditions: SKBR-3 cells; Herceptin 0.5 mg/ml; FIG. 4
Description: Cancer Cell Proliferation Assessment: SKBR-3 cells (ATCC, HTB3O, USA) were plated (1×10^4 cells in McCoy's 5 A medium/well) in quintuplicate and octuplicate for samples and control, respectively, in 96-well microplates and allowed to adhere overnight. […] At the time points indicated, the culture media were replaced by the phenol red-free media containing 10% of Alamar Blue. Cell proliferation was determined from the reduction in dye absorbance at 570 and 600 nm after 4 h of incubation.

Sequence of proteinase K (P06873 106-384): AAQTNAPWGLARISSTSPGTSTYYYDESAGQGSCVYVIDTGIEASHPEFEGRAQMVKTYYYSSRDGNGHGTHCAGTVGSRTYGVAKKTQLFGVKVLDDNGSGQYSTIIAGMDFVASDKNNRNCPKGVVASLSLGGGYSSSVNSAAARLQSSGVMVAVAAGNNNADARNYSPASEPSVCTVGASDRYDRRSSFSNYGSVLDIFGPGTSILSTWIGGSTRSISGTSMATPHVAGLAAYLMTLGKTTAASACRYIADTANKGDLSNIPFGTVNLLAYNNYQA

(−)-epigallocatechin gallate [EGCG] was tested, and the cytotoxicity [1] was “low cytotoxicity”.
For “free FITC-BSA: fluorescence-labeled protein (FITC-BSA)”, the “fluorescence intensity of FITC-BSA (protein degradation)” value (proteinase K) was “greatly increased with time”.
With “oligomeric (−)-epigallocatechin-3-O-gallate [OEGCG]” the “inhibition of cell growth” value [2] was “inhibited”.
